What was measured:
[1] = system: CYP enzymes in rat liver microsomes (RLM); assay: Inhibition of 20-HETE production in rat liver microsomes (RLM); assay type: biochemical
Outline: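 Test compounds were dissolved in DMSO, diluted in acetonitrile/DMSO (3:1), and 2 μl was mixed with 100 μl potassium phosphate buffer containing rat liver microsomes in a 96-well plate. Duplicate 30 μl aliquots received 15 μl of 400 μM substrate, were preheated at 37° C. for 10 minutes, then started with 15 μl of 6 mM NADPH for 25 minutes. LC-MS/MS measured 20-HETE formation.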

[2] = target: recombinant CYP4F2 (rCYP4F2) (Homo sapiens (Human), UniProt P78329); assay: Inhibition of 20-HETE production by recombinant CYP4F2; assay type: biochemical
Experimental: Experimental principle: The inhibitory activity of 20-HETE production is evaluated by testing the inhibitory effects of the compound on human liver microsomes (HLM), rat liver microsomes (RLM), mouse liver microsomes (MLM), or […] CYP4 subtype enzymes (CYP4F2). This assay employs HLM, RLM, or MLM along with recombinant CYP4F2 (rCYP4F2) and recombinant CYP4A11 (rCYP4A11), which are […] CYP4 subtype enzymes, to detect the effects of the test compound at different concentrations on the metabolic rate of enzyme-specific substrates, to determine the inhibitory effects of the test compound on CYP enzymes in HLM, RLM, or MLM.
Experimental methods: Dissolve the test compound in DMSO, and subsequently dilute it with an acetonitrile and DMSO mixture (3:1). Add 2 μl of varying concentrations of the test compound and 100 μl of potassium phosphate buffer containing either liver microsomes or recombinant enzymes to a 96-well plate. After mixing well, transfer 30 μl to another well (in duplicate), add 15 μl of 400 μM substrate solution, and mix well again. Preheat at 37° C. for 10 minutes, and then add 15 μl of 6 mM NADPH and incubate at 37° C. for 25 minutes. After 25 minutes, add 160 μl of acetonitrile solution (containing 0.1 μg/ml internal standard) to stop the reaction. Mix well, centrifuge at 3500 g for 15 minutes, and then analyze the supernatant using LC-MS/MS.
Plot the compound concentration on the x-axis and the inhibition rate on the y-axis to draw the curve. Use GraphPad Prism 5 software to fit the curve and calculate the IC50. The formula is Y=Bottom+(Top−Bottom)/(1+10^((Log IC50−X)×HillSlope)). X represents the logarithmic concentration of the inhibitor, and Y represents the relative enzyme activity at a given inhibitor concentration (relative to the condition without the inhibitor).
Calculate the inhibition percentages at concentrations of 1000 nM, 500 nM, or 100 nM as well as the half-maximal inhibitory concentration (IC50) of the test compound from the above experiment.

[3] = system: diet-induced obesity (DIO) mouse model; assay: Experiment 2: compound 2 and 4, weight loss and blood glucose lowering in DIO mouse model; assay type: in vivo, Male C57BL/6J mice
Excerpt: Experiment 2 was to study the effects of compound 2 and 4 on weight loss and blood glucose lowering in a diet-induced obesity (DIO) mouse model. Male C57BL/6J mice were purchased from Zhuhai BST Biotechnology Co., Ltd. and housed in a barrier system animal facility. Animals were randomly divided into 4 groups: normal control group, DIO model control group, DIO model compound 2 treatment group, and DIO model compound 4 treatment group, with 4-5 animals per group. The model control group and treatment groups were first fed with high-fat diet (HFD) for 9 weeks (day 63), and then the treatment groups were orally administered with compound 2 or compound 4 at a dose of 50 mg/kg once daily for 4 consecutive weeks, while continuing to receive HFD. Animal weights were measured weekly, and on the last day of treatment, they were fasted overnight but allowed access to water before an oral glucose tolerance test (OGTT).

[4] = system: diet-induced obesity (DIO) mouse model; assay: Experiment 3: compound 2, weight loss and blood glucose lowering in DIO mouse model; assay type: in vivo, Male C57BL/6J mice
Excerpt: Experiment 3 was to study the effects of compound 2 on weight loss and blood glucose lowering in a diet-induced obesity (DIO) mouse model. Male C57BL/6J mice were purchased from Zhuhai BST Biotechnology Co., Ltd. and housed in a barrier system animal facility. Animals were randomly divided into 3 groups: normal control group, DIO model control group, and DIO model compound 2 treatment group, with 6-8 animals per group. The model control group and treatment group were first fed with high-fat diet (HFD) for 9 weeks (day 63), and then the treatment group was orally administered with compound 2 at a dose of 30 mg/kg once daily for 8 consecutive weeks, while continuing to receive HFD. Animal weights were measured weekly, and on the last day of treatment, they were fasted overnight but allowed access to water before an oral glucose tolerance test (OGTT).

[5] = 50 mg/kg orally once daily for 4 weeks, DIO mice
[6] = 30 mg/kg orally once daily for 8 weeks, DIO mice

Chain of recombinant CYP4F2 (rCYP4F2) (P78329 5-520): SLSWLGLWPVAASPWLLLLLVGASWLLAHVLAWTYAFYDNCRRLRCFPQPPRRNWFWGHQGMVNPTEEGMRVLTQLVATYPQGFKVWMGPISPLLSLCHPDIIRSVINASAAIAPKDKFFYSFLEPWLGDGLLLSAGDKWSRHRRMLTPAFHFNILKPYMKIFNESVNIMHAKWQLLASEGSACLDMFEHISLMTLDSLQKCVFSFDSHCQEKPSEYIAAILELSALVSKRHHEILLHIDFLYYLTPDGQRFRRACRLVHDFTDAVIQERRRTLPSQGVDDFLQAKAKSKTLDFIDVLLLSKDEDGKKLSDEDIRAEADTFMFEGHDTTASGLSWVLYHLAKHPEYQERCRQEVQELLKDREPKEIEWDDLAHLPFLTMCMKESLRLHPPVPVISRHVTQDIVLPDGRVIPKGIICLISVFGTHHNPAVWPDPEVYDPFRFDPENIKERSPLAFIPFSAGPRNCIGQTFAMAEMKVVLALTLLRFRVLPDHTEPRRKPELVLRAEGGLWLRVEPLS

O=C1CCCN1CC1CCN(c2ccc(-c3cn[nH]c3)cc2F)CC1 [Compound 2, 1-((1-(2-fluoro-4-(1H-pyrazol-4-yl)phenyl)piperidin-4-yl)methyl)pyrrolidin-2-one]
IC50 [1]: 103 nM
RLM (% inh @ 500 nM) ([1]; 500 nM): 59.38%
IC50 [2]: 15.8 nM
fasting blood glucose [3, 5]: inhibit the increase in fasting blood glucose
glucose metabolism (OGTT) [3, 5]: enhance glucose metabolism
body weight decrease, of the pre-administration weight ([3]; 50 mg/kg orally once daily, first week of administration, after 9 weeks HFD): 12%-16%
fasting blood glucose [4, 6]: inhibit the increase in fasting blood glucose
glucose metabolism (OGTT) [4, 6]: enhance their glucose metabolism
food intake compared to the DIO model control group ([4]; 30 mg/kg orally once daily, after 2 weeks): no difference
difference in weight gain relative to the DIO model control group ([4]; 30 mg/kg orally once daily, after 8 weeks): 47.1%
body weight decrease, of pre-administration weight ([4]; 30 mg/kg orally once daily, after 8 weeks, DIO mice): 20.8%
food intake ([4]; 30 mg/kg orally once daily, first 2 weeks of administration): decreased

Reference: patent US20250034116A1, “1,4-DIHETEROCYCLIC SUBSTITUTED AROMATIC RING OR AROMATIC HETEROCYCLIC COMPOUND AND USE THEREOF” (BeBetter Med Inc., priority 2022, published 2025)
